Entries after “also recorded” stand apart in the source; their conditions may differ. No end group written: not given here. *: point of attachment. acyloxymethyl ketone = C-terminal acyloxymethyl ketone; Biotin = O=C1N[C@H]2[C@H](CS[C@H]2CCCCC(=O)*)N1
Key:
human separase [1] = test: Covalent labelling of separase forms by biotin peptide (avidin blot); format: binding
Experimental: (§1) B. Separase immunoprecipitates were incubated with 100 μM Biotin-SVEQGR-amk or with DMSO prior mitotic activation. Incubation for 10 minutes, 22° C. and 1000 rpm. After washing twice in XB+1 mM DTT the activation was performed in mitotic Xenopus egg extracts.
(§2) Interphase Xenopus egg extracts were driven into mitosis in the presence of 1 mM Biotin-SVEQGR-amk or DMSO. Those mitotic Xenopus egg extracts were used to activate a batch of separase immunoprecipitates.
Biotin labeled peptides were detected via immunoblotting according to Faleiro et al., 1997.
C. Mitotically activated separase immunoprecipitates were preincubated with either 8 μg recombinant securin or with 8 μg of a C-terminal truncated version of cyclinB in 100 μl XB+1 mM DTT for 30 min at 22° C. and 1250 rpm. Subsequently the beads were washed twice with TBS+0.5 M NaCl+1 mM DTT+0.5% Tween 20 and twice with XB+1 mM DTT. Thereafter beads were incubated with 100 μl of 100 μM Bio-DREIMR-amk in XB+[…]. After 10 min incubation at 22° C. and 1250 rpm beads were again washed and analyzed by immunoblotting.
FIG. 4B: Separase IPs (see A) were either preincubated with Biotin-SVEQGR-amk (preinc. with inh. peptide) or with DMSO (preinc. with DMSO), subsequently washed and aliquots were taken. Thereafter they were incubated in mitotic Xenopus egg extracts and washed again. Samples were taken for analysis (1i, 1c). Separase IPs were activated either in mitotic Xenopus egg extracts which were driven into mitosis in the presence of Biotin-SVEQGR-amk or DMSO, subsequently washed and aliquots were taken for analysis (2i, 2c). Already mitotically activated separase IPs (see A) were incubated with Biotin-SVEQGR-amk or DMSO, thereafter washed and aliquots were taken for analysis (3i, 3c). All samples were analysed by immunoblotting with avidin.
FIG. 4D: Activated separase immunoprecipitates bound by antibodies against the C-terminus of separase to beads were first incubated with recombinant securin or, for control, with recombinant truncated cyclinB. […] Thereafter, the immunoprecipitates were again washed and analyzed by immunoblotting.

human separase [2] = target: human separase (Homo sapiens, UniProt Q14674); conditions: same concentration at which SCC1 cleavage was inhibited
Experimental: A. Mitotically activated separase immunoprecipitates were preincubated with yeast peptides (Uhlmann et al., 2000) before they were used in the SCC1-cleavage assay. Biotin-SVEQGR-amk or Biotin-SVEQGR-cmk were used at different concentration (0.1, 1, 10, 100, 1000 μM in XB+0.5 mM DTT). Separase immunoprecipitates were incubated for 10 minutes, 22° C. and 1200 rpm. The SCC1 in vitro cleavage assay was performed after washing once with XB+0.5 mM DTT (see above). Human peptides, Biotin-DREIMR-amk or DREIMR-amk, were diluted and used as above described for the yeast peptides.

human separase [3] = test: SCC1 in vitro cleavage assay; format: biochemical
Experimental: 30 microliter beads were incubated with 40 μg bacterially expressed wildtype securin, destruction box deleted form of securin (Gmachl et al., 2000) or BSA diluted in XB+1 mM DTT for 40 min at RT. Subsequently the beads were washed with XB+1 mM DTT and with TBS+0.5 M NaCl+1 mM DTT+0.5% TWEEN20, followed by one wash with XB+1 mM DTT. To control the rebinding of securin an aliquot of 5 μl was taken per assay and subsequently analysed by immunoblotting with antibodies against separase and securin.
The beads were used for the SCC1 in vitro cleavage assay: 20 μl beads were mixed with 30 μl of the following SCC1 in vitro translation mix (SCC1 myc IVT+1 μl PLK-GST+0.3 μl […], 0.3 μl 100 mM ATP, 0.12 μl 250 mM EGTA, 13.78 μl XB+1 mM DTT) and incubated at 22° C. and 1200 rpm. 5 μl were taken per time point, the reaction was stopped by addition of SDS loading buffer. Samples were analyzed by immunoblotting with mouse monoclonal antibodies against myc (9E10).
as §1, §2

[4] = activation in mitotic Xenopus extracts in presence of peptide (lane 2i)
[5] = substance added to mitotically activated separase immunoprecipitates before SCC1-myc reaction mix

human separase, sequence (Q14674 1536-2120 limits assumed): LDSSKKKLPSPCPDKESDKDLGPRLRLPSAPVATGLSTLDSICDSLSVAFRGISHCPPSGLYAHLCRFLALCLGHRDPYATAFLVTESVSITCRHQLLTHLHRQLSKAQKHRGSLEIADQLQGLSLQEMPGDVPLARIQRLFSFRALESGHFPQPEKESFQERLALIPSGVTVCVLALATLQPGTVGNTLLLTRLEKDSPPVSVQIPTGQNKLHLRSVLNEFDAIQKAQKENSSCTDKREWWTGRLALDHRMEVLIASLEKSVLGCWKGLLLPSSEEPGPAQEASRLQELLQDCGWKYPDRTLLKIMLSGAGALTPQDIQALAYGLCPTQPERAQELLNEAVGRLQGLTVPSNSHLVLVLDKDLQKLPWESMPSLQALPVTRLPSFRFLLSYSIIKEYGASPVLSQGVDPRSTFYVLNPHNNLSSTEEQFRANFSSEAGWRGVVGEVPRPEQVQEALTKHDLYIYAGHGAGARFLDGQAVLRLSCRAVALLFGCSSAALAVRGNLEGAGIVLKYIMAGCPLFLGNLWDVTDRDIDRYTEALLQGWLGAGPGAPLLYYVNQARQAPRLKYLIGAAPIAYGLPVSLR
human separase (Homo sapiens, UniProt Q14674), sequence (Q14674 whole entry): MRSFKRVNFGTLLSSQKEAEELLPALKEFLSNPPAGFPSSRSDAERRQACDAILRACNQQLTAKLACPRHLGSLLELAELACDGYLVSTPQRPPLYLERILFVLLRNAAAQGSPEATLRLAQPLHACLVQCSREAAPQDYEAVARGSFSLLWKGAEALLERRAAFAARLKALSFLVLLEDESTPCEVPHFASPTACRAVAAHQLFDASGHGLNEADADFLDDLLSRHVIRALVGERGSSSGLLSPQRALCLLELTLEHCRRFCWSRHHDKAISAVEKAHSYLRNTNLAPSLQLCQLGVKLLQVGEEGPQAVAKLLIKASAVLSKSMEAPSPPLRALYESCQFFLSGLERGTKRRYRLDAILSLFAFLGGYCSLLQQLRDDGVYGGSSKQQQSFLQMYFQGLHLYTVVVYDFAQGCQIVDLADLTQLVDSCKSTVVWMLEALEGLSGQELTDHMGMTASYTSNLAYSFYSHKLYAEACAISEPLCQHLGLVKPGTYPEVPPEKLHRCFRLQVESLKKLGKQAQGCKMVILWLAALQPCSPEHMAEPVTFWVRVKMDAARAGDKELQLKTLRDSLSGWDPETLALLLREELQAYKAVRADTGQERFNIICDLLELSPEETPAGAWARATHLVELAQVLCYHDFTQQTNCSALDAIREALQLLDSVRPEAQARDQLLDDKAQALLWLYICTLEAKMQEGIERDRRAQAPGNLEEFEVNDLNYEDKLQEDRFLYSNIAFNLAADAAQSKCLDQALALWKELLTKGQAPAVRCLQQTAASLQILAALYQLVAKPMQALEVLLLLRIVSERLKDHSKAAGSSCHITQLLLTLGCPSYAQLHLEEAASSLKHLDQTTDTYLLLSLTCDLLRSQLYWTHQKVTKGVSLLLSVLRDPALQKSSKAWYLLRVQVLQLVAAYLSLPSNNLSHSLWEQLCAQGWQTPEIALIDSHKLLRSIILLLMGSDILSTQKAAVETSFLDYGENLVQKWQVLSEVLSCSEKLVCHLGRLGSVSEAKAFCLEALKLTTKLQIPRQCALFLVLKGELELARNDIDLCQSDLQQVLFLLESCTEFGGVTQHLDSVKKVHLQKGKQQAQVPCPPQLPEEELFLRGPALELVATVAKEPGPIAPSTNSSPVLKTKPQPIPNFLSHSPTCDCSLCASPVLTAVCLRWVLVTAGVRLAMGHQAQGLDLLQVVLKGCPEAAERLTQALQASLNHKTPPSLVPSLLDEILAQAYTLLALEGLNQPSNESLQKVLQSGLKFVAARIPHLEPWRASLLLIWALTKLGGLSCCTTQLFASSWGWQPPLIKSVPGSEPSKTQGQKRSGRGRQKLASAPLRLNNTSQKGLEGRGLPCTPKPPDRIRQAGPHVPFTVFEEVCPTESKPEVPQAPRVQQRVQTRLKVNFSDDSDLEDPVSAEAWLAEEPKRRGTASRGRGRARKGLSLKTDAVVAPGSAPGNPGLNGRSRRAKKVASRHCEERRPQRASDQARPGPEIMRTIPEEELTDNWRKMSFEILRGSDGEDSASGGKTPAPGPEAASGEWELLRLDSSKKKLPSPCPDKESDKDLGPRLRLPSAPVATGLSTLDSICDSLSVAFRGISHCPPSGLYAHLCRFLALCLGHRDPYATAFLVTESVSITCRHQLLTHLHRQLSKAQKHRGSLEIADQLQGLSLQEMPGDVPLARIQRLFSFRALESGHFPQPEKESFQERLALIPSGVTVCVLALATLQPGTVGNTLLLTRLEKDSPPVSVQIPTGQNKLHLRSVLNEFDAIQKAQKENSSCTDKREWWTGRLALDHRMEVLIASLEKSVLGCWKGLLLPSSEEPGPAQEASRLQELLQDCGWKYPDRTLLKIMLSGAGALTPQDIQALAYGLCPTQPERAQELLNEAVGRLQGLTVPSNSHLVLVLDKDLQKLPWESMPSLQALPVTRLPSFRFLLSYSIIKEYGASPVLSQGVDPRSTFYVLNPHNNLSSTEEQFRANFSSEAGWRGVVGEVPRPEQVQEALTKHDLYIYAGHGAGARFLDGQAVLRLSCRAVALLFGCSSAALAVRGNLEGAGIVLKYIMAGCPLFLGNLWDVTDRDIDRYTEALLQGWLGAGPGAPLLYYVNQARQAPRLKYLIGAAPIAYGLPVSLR

| Substance | separase forms labeled by the peptide (human separase [1]; [4]) | separase forms bound by the peptide (human separase [1]; peptide added after activation in mitotic Xenopus extracts (lane 3i)) | separase forms labeled by the peptide (human separase [1]; peptide added before activation in mitotic Xenopus extracts (lane 1i)) | formation of the p55 cleavage product of human separase (human separase [2]) | relative effectiveness of the two yeast peptide inhibitors (human separase [3]) | SCC1 cleavage by separase (human separase [3]; [4]) | SCC1 cleavage by separase (human separase [3]; peptide added before activation and washed away before mitotic Xenopus extract (lane 1i)) | SCC1 cleavage by separase (human separase [3]; [5]) |
| --- | --- | --- | --- | --- | --- | --- | --- | --- |
| Bio-SVEQGR-amk: synthetic peptide with budding yeast SCC1 cleavage site SVEQGR, C-terminal acyloxymethyl ketone, N-terminal biotin (Biotin-SVEQGR-{acyloxymethyl ketone}) | both the cleaved forms of separase and full-length separase were covalently labeled | bound exclusively to the cleaved forms of human separase | only the small amount of p60 that is already present in these immunoprecipitates was labeled | largely inhibited | the more effective one of the two yeast peptide inhibitors | separase was unable to cleave SCC1 | separase could be activated normally to cleave SCC1 | inhibited SCC1 cleavage by separase; also recorded: able to block the ability of separase to cleave SCC1 |
| DREIMR-amk: peptide inhibitor based on the cleavage recognition site of human SCC1, DREIMR, acyloxymethyl ketone (DREIMR-{acyloxymethyl ketone}) | – | – | – | – | – | – | – | able to inhibit separase at a similar concentration as the peptide inhibitors derived from yeast |

Reference: patent US20020164620A1, “Method for identifying compounds modulating sister chromatid separation” (Boehringer Ingelheim International GmbH, priority 2001, published 2002)
